Reference: article PMC7056649 (Heliyon, 2020)

What was measured:
[1] = system: membrane-bound α-glucosidases on differentiated Caco-2 cells; assay: Membrane bound α-glucosidase inhibitory activity in differentiated Caco-2 cells; format: cell-based, human; conditions: 25 mM maltose, 0.1-100 μg/ml, 4 h; comparison in words
Caco-2 cells = conditions: ref Ahn et al., 2017, Mei et al., 2012; cited from earlier work
[2] = molecular target: Saccharomyces cerevisiae α-glucosidase (Saccharomyces cerevisiae, UniProt P53341); assay: α-Glucosidase inhibitory activity and kinetic analysis; format: biochemical; conditions: for Ki: yeast α-glucosidase hydrolysis of PNPG; for Mode of Inhibition: PNPG substrate, determined by Lineweaver-Burk plots
[3] = molecular target: T1, porcine pancreatic α-amylase (Sus scrofa, UniProt P00690); assay: α-Amylase inhibitory activity; format: biochemical; conditions: up to 600 μg/mL
T1 sequence (P00690 16-511): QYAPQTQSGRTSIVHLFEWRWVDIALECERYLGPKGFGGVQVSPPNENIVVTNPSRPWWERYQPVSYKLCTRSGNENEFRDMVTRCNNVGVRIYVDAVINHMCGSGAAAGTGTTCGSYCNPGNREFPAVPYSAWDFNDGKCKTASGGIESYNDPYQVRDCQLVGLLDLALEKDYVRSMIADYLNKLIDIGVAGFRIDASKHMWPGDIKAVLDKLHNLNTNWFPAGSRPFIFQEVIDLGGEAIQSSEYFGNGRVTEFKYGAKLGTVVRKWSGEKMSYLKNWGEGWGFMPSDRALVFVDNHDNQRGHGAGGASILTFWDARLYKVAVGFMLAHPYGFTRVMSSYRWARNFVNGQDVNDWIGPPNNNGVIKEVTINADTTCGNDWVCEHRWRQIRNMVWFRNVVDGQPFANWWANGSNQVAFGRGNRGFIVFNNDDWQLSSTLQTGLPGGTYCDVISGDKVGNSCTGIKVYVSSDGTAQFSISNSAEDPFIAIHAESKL

Saccharomyces cerevisiae α-glucosidase, sequence (P53341 whole entry): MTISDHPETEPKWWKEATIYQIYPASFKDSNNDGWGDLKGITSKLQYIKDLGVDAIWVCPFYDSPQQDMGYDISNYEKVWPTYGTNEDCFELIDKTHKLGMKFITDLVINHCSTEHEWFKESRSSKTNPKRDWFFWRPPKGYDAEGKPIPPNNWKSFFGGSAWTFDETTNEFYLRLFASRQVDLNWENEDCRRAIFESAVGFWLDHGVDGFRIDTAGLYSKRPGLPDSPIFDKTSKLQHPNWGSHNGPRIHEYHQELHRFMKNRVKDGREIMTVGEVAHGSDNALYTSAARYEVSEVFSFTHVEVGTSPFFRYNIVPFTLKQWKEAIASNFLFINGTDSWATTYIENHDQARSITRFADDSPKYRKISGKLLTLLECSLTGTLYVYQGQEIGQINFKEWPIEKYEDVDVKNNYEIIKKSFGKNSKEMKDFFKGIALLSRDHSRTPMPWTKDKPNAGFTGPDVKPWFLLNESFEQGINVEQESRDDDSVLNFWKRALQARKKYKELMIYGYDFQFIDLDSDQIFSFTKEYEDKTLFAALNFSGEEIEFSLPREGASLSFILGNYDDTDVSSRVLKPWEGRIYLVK

| Structure (SMILES) | inhibition of maltose hydrolysis in differentiated Caco-2 cells [1] | re-export rate from Caco-2 cells (Caco-2 cells) | IC50 ([2]; IC50, substrate PNPG) [µM] | Ki ([2]; Dixon plots, value in brackets) [µM] | Ki ([2]; determined by Dixon plots) [µM] | Mode of Inhibition [2] | Mode of Inhibition ([2]; listed as oxyresveratrol) | inhibition of α-amylase [3] |
| --- | --- | --- | --- | --- | --- | --- | --- | --- |
| C[C@H]1O[C@H](O[C@H]2[C@H](O)[C@@H](O)[C@@H](O[C@H]3[C@H](O)[C@@H](O)C(O)O[C@@H]3CO)O[C@@H]2CO)[C@H](O)[C@@H](O)[C@@H]1N[C@H]1C=C(CO)[C@@H](O)[C@H](O)[C@H]1O (stereo partly drawn) [Acarbose, acarbose, reference compound] | far more susceptible to acarbose |  |  |  |  |  |  |  |
| Oc1cc(O)cc(/C=C/c2ccc(O)cc2O)c1 [Oxyresveratrol, trans-3,5,2′,4′-tetrahydroxystilbene] | lesser potency compared to acarbose | high | 203 | 223 | 223 | Non-competitive | non-competitively | no detectable inhibition |
